Key:
hNav1.7 = target: T1, hNav1.7 (Homo sapiens, UniProt Q15858); assay: Tritiated sulfonamide competitive binding to membranes from cells expressing hNav1.7 and the β1 subunit (LBA); details: competition with 100 pM [3H]compound, 18 h, room temperature; read-out: Nav1.7 (LBA)
T1 construct: expressed in transfected cells
Experimental: Tritiated Sulfonamide Binding to Membranes Isolated from Cells that Heterologously Express hNav1.7 and the β1 Subunit
Preparation of membranes containing recombinantly expressed sodium channels: Frozen recombinant cell pellets were thawed on ice and diluted to 4 times the cell pellet weight with ice cold 50 mM Tris HCl, pH 7.4 buffer. The cell suspensions were homogenized on ice using a motorized glass dounce homogenizer. Homogenates were further diluted 8.4 times with ice cold 50 mM Tris HCl, pH 7.4 buffer and then centrifuged at 200×g at 4° C. for 15 min. The supernatants were collected and centrifuged at 10000×g at 4° C. for 50 min. The pellets were then re-suspended in 100 mM NaCl, 20 mM Tris HCl, pH 7.4 buffer containing 1% v/v protease inhibitors (Calbiochem) and re-homogenized on ice. The homogenized membranes were then processed through a syringe equipped with a 26 gauge needle. Protein concentrations were determined by Bradford Assay and the membranes were stored at −80° C.
Saturation experiments. A competitive NaV1.7 inhibitor having a methyl group was tritiated. Three tritiums were incorporated in place of methyl hydrogens to generate [^3H]compound. Binding of this radioligand was preformed in 5 mL borosilicate glass test tubes at room temperature. Binding was initiated by adding membranes to increasing concentrations of [^3H]compound in 100 mM NaCl, 20 mM Tris HCl, pH 7.4 buffer containing 0.01% w/v bovine serum albumin (BSA) for 18 h. Non-specific binding was determined in the presence of 1 μM unlabelled compound. After 18 h, the reactants were filtered through GF/C glass fiber filters presoaked in 0.5% w/v polyethylene imine. Filters were washed with 15 mL ice cold 100 mM NaCl, 20 mM Tris HCl, pH 7.4 buffer containing 0.25% BSA to separate bound from free ligand. [^3H]compound bound to filters was quantified by liquid scintillation counting.
Binding reactions were performed in 96-well polypropylene plates at room temperature for 18 h. In 360 μL, membranes were incubated with 100 pM [^3H]compound and increasing concentrations of Test Compound. Non-specific binding was defined in the presence of 1 μM unlabelled compound. Reactions were transferred and filtered through 96-well glass fiber/C filter plates presoaked with 0.5% polyethylene imine. The filtered reactions were washed 5 times with 200 μL ice cold buffer containing 0.25% BSA. Bound radioactivity was determined by liquid scintillation counting.
Data Analysis: For saturation experiments, non-specific binding was subtracted from total binding to provide specific binding and these values were recalculated in terms of pmol ligand bound per mg protein. Saturation curves were constructed and dissociation constants were calculated using the single site ligand binding model: Beq=(Bmax*X)/(X+Kd), where Beq is the amount of ligand bound at equilibrium, Bmax is the maximum receptor density, Kd is the dissociation constant for the ligand, and X is the free ligand concentration. For competition studies percent inhibition was determined and IC50 values were calculated using a 4 parameter logistic model (% inhibition=(A+((B−A)/(1+((x/C)^D)))) using XLfit, where A and B are the maximal and minimum inhibition respectively, C is the IC50 concentration and D is the (Hill) slope.

NaV1.7 = target: T2, NaV1.7 (Homo sapiens, UniProt Q15858); assay: Patch voltage clamp electrophysiology assay (EP), NaV1.7 in HEK-293 cells; assay type: cell-based; details: HEK-293, β1 coexpressed, held at -60 mV (inactivated state)
T2 construct: expression vector containing the full-length cDNA coding for the desired human sodium channel α-subunit; expressed in transfected cells; host or cells: HEK-293
T2 sequence (Q15858 1-1977 isoform Q15858-3): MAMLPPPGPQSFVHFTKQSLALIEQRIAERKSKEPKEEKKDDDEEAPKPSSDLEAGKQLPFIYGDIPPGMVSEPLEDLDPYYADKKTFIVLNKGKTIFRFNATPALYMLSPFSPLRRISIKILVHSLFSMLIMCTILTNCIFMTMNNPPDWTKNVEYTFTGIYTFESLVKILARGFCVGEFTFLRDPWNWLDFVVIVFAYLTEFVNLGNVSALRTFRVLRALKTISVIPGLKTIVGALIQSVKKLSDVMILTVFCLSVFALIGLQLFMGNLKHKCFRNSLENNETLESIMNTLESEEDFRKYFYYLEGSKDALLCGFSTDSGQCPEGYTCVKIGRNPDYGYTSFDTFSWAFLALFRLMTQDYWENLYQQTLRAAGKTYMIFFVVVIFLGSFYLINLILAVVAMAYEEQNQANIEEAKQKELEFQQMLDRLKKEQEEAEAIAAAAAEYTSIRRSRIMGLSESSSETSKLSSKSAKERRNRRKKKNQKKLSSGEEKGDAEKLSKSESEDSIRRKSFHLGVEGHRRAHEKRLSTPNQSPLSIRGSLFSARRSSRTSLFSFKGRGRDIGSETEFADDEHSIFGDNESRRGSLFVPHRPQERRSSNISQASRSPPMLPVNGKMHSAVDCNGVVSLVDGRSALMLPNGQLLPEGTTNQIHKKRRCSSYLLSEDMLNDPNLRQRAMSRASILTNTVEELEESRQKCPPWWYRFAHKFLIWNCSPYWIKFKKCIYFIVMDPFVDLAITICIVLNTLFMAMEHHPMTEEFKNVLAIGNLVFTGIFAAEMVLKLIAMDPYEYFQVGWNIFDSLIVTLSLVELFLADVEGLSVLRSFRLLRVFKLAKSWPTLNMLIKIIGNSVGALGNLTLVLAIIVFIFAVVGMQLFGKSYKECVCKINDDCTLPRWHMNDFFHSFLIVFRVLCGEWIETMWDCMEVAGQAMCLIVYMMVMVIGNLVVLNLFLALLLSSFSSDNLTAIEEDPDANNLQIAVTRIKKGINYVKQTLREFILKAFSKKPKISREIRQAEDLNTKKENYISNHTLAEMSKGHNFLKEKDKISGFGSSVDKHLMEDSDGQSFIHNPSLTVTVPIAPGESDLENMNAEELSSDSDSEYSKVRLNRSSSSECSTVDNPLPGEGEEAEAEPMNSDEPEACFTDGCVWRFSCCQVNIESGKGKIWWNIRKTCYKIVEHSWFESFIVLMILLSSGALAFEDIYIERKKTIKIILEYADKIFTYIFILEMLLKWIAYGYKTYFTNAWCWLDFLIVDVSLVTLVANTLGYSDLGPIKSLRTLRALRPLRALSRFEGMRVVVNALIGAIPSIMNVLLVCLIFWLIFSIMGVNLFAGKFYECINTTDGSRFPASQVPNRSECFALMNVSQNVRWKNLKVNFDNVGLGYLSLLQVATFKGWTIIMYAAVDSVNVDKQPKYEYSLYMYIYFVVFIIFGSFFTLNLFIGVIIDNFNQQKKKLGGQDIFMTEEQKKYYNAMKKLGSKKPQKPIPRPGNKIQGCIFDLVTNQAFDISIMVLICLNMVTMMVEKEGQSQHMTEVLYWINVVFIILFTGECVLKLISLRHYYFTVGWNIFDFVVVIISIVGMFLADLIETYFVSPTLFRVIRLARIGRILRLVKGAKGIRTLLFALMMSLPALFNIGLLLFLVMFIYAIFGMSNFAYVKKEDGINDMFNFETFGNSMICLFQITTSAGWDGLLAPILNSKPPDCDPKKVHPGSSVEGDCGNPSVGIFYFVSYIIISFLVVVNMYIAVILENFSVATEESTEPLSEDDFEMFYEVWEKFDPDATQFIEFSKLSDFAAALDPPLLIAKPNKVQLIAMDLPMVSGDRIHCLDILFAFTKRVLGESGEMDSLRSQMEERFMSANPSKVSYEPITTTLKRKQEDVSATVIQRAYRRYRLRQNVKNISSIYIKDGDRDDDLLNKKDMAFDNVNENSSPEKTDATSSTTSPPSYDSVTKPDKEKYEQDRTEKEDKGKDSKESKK
T2 sequence (Q07699 19-218 partner): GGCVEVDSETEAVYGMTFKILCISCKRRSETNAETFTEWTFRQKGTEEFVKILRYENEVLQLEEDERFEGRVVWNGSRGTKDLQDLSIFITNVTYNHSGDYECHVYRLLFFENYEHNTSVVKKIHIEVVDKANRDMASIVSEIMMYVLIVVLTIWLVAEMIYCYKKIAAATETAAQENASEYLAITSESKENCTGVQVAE
Text: (§1) Electrophysiological Assay (EP) (In Vitro Assay)
(§2) Patch voltage clamp electrophysiology allows for the direct measurement and quantification of block of voltage-gated sodium channels (NaV's), and allows the determination of the time- and voltage-dependence of block which has been interpreted as differential binding to the resting, open, and inactivated states of the sodium channel (Hille, B., Journal of General Physiology (1977), 69: 497-515).
(§3) The following patch voltage clamp electrophysiology studies were performed on representative compounds of the invention using human embryonic kidney cells (HEK), permanently transfected with an expression vector containing the full-length cDNA coding for the desired human sodium channel α-subunit, grown in culture media containing 10% FBS, 1% PSG, and 0.5 mg/mL G418 at 37° C. with 5% CO2. […] NaV1.7 and NaV1.5 cDNAs (NM_002977 and AC137587; SCN5A, respectively) were stably expressed in HEK-293 cells. The β1 subunit was coexpressed in both the NaV1.7 and NaV1.5 cell lines.
(§4) Sodium currents were measured using the patch clamp technique in the whole-cell configuration using either a PatchXpress automated voltage clamp or manually using an Axopatch 200B (Axon Instruments) or Model 2400 (A-M systems) amplifier. The manual voltage clamp protocol was as follows: Borosilicate glass micropipettes were fire-polished to a tip diameter yielding a resistance of 2-4 Mohms in the working solutions. The pipette was filled with a solution comprised of: 5 mM NaCl, 10 mM CsCl, 120 mM CsF, 0.1 mM CaCl2, 2 mM MgCl2, 10 mM HEPES, 10 mM EGTA; and adjusted to pH 7.2 with CsOH. The external solution had the following composition: 140 mM NaCl, 5 mM KCl, 2 mM CaCl2, 1 mM MgCl2, 10 mM HEPES; and adjusted to pH 7.4 with NaOH. In some studies, the external sodium was reduced by equimolar replacement with choline. Osmolarity in the CsF internal and NaCl external solutions was adjusted to 300 mOsm/kg and 310 mOsm/kg with glucose, respectively. All recordings were performed at ambient temperature in a bath chamber with a volume of 150 μL. Control sodium currents were measured in 0.5% DMSO. Controls and representative compounds of the invention were applied to the recording chamber through a 4-pinch or 8-pinch valve bath perfusion system manufactured by ALA Scientific Instruments.
(§5) Currents were recorded at 40 kHz sampling frequency, filtered at […], and stored using a Digidata-1322A analogue/digital interface with the pClamp software (Axon Instruments). Series resistance compensation was applied (60-80%). […] All statistics in this study are given as mean±SD.
(§6) The membrane potential was maintained at a voltage where inactivation of the channel is complete (which was −60 mV for both NaV1.7 and NaV1.5). The voltage is then stepped back to a very negative (Vhold=[…]) voltage for 20 ms and then a test pulse is applied to quantify the compound block. The 20 ms brief repolarization was long enough for compound-free channels to completely recover from fast inactivation, but the compound-bound channels recovered more slowly such that negligible recovery could occur during this interval. The percent decrease in sodium current following wash-on of compound was taken as the percent block of sodium channels.

NaV1.5 = target: T3, NaV1.5 (Homo sapiens, UniProt Q14524); assay: Patch voltage clamp electrophysiology assay (EP), NaV1.5 in HEK-293 cells; assay type: cell-based; details: HEK-293, β1 coexpressed, held at -60 mV (inactivated state)
T3 construct: expression vector containing the full-length cDNA coding for the desired human sodium channel α-subunit; expressed in transfected cells; host or cells: HEK-293
T3 sequence (Q14524 whole entry): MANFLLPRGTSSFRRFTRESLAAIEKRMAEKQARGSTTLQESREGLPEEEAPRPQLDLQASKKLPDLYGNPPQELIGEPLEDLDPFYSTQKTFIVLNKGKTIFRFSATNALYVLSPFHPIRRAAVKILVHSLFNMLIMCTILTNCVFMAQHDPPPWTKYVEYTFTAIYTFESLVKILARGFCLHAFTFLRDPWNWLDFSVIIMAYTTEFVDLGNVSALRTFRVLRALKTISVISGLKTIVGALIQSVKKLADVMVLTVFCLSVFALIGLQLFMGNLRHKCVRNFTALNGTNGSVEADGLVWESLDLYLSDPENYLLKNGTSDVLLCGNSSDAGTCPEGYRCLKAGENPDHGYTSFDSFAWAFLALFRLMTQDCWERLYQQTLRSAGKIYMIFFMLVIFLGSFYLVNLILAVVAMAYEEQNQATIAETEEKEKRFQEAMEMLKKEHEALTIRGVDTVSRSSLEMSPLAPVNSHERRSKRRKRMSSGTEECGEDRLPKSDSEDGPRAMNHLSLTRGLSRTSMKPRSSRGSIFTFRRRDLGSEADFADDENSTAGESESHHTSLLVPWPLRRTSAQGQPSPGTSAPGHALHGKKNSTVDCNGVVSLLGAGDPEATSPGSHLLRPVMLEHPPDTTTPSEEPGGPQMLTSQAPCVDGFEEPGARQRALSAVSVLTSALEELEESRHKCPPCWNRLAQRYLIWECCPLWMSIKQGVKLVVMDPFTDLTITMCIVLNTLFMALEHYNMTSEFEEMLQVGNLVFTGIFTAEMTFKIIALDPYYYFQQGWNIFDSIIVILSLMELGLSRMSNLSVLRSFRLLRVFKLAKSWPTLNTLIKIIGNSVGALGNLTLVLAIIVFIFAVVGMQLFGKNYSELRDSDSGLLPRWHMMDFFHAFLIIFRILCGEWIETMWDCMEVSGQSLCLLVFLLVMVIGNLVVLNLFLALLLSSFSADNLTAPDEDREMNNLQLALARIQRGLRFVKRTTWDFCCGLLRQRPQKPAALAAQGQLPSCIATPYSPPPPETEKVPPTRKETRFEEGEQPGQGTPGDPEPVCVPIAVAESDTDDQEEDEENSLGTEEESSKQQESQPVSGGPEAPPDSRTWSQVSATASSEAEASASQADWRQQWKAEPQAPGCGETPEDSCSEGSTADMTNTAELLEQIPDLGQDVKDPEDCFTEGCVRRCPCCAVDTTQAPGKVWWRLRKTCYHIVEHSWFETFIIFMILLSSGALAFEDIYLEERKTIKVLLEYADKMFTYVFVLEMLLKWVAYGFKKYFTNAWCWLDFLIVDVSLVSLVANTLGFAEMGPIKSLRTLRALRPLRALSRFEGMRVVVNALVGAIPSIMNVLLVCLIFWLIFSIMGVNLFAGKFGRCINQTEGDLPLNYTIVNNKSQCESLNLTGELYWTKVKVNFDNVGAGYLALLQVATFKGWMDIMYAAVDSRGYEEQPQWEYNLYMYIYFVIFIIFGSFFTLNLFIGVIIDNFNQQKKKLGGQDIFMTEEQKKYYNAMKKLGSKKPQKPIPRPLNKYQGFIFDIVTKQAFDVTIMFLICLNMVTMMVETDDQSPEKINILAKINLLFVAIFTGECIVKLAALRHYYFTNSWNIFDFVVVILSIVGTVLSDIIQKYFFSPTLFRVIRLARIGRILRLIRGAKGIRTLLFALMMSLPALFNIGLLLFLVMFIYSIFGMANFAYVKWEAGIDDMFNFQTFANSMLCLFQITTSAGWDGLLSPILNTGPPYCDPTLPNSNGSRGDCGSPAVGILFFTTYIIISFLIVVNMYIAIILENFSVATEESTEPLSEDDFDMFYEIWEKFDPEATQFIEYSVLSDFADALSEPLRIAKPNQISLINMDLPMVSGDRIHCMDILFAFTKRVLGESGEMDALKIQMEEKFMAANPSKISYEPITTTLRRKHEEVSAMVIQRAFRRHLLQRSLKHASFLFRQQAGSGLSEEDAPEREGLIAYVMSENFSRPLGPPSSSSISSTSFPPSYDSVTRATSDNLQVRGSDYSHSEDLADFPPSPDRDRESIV
Text: as §1, §2, §3, §4, §5, §6

T1 sequence (Q15858 1-1977 isoform Q15858-3): as the sequence (Q15858 1-1977 isoform Q15858-3) above
T1 sequence (Q07699 19-218 partner): as the sequence (Q07699 19-218 partner) above

Cc1nn(C2CCN(Cc3cc(C(F)(F)F)cc(Cl)c3F)CC2)c2cc(F)c(C(=O)NS(C)(=O)=O)cc12 [Example 1, 1-(1-(3-chloro-2-fluoro-5-(trifluoromethyl)benzyl)piperidin-4-yl)-6-fluoro-3-methyl-N-(methylsulfonyl)-1H-indazole-5-carboxamide 2,2,2-trifluoroacetate]
IC50 (hNav1.7): 0.034 µM
IC50 (NaV1.7): 0.68 µM
IC50 (NaV1.5): 22 µM

Cc1nn(C2CCN(Cc3cc(C(F)(F)F)cc(Cl)c3F)CC2)c2cc(F)c(C(=O)NS(=O)(=O)C3CC3)cc12 [Example 2, 1-(1-(3-chloro-2-fluoro-5-(trifluoromethyl)benzyl)piperidin-4-yl)-N-(cyclopropylsulfonyl)-6-fluoro-3-methyl-1H-indazole-5-carboxamide 2,2,2-trifluoroacetate]
IC50 (hNav1.7): 0.013 µM
IC50 (NaV1.7): 0.086 µM
IC50 (NaV1.5): 4.9 µM

Cc1nn(C2CCN(Cc3cc(C(F)(F)F)cc(Cl)c3F)CC2)c2cc(F)c(C(=O)NS(=O)(=O)N3CCC3)cc12 [Example 3, N-(azetidin-1-ylsulfonyl)-1-(1-(3-chloro-2-fluoro-5-(trifluoromethyl)benzyl)piperidin-4-yl)-6-fluoro-3-methyl-1H-indazole-5-carboxamide 2,2,2-trifluoroacetate]
IC50 (hNav1.7): 0.033 µM
IC50 (NaV1.7): 0.25 µM
IC50 (NaV1.5): 7.4 µM

Cc1nn(C2CCN(Cc3cc(Cl)cc(OC(F)(F)F)c3)CC2)c2cc(F)c(C(=O)NS(C)(=O)=O)cc12 [Example 4, 1-(1-(3-chloro-5-(trifluoromethoxy)benzyl)piperidin-4-yl)-6-fluoro-3-methyl-N-(methylsulfonyl)-1H-indazole-5-carboxamide 2,2,2-trifluoroacetate]
IC50 (hNav1.7): 0.024 µM
IC50 (NaV1.7): 0.42 µM
IC50 (NaV1.5): 26 µM

Cc1nn(C2CCN(Cc3cc(Cl)cc(OC(F)(F)F)c3)CC2)c2cc(F)c(C(=O)NS(=O)(=O)C3CC3)cc12 [Example 5, 1-(1-(3-chloro-5-(trifluoromethoxy)benzyl)piperidin-4-yl)-N-(cyclopropylsulfonyl)-6-fluoro-3-methyl-1H-indazole-5-carboxamide]
IC50 (hNav1.7): 0.006 µM
IC50 (NaV1.7): 0.051 µM
IC50 (NaV1.5): 2.4 µM

Cc1nn(C2CCN(Cc3cc(Cl)cc(Cl)c3)CC2)c2cc(F)c(C(=O)NS(=O)(=O)C3CC3)cc12 [Example 6, N-(cyclopropylsulfonyl)-1-(1-(3,5-dichlorobenzyl)piperidin-4-yl)-6-fluoro-3-methyl-1H-indazole-5-carboxamide 2,2,2-trifluoroacetate]
IC50 (hNav1.7): 0.014 µM
IC50 (NaV1.7): 0.072 µM
IC50 (NaV1.5): 7 µM

Cc1nn(C2CCN(Cc3cc(OC(F)(F)F)ccc3Br)CC2)c2cc(F)c(C(=O)NS(=O)(=O)C3CC3)cc12 [Example 7, 1-(1-(2-bromo-5-(trifluoromethoxy)benzyl)piperidin-4-yl)-N-(cyclopropylsulfonyl)-6-fluoro-3-methyl-1H-indazole-5-carboxamide 2,2,2-trifluoroacetate]
IC50 (hNav1.7): 0.005 µM
IC50 (NaV1.7): 0.009 µM
IC50 (NaV1.5): 0.63 µM

Cc1nn(-c2ccc3c(c2)CCCC3)c2cc(F)c(C(=O)NS(=O)(=O)N3CCC3)cc12 [Example 25, N-(azetidin-1-ylsulfonyl)-6-fluoro-3-methyl-1-(5,6,7,8-tetrahydronaphthalen-2-yl)-1H-indazole-5-carboxamide]
IC50 (hNav1.7): 0.26 µM
IC50 (NaV1.7): 0.044 µM

Cc1nn(-c2ccc3c(c2)CCCC3)c2cc(F)c(C(=O)NS(C)(=O)=O)cc12 [Example 26, 6-fluoro-3-methyl-N-(methylsulfonyl)-1-(5,6,7,8-tetrahydronaphthalen-2-yl)-1H-indazole-5-carboxamide]
IC50 (hNav1.7): 0.1 µM
IC50 (NaV1.7): 0.16 µM

Cc1nn(C2CCC(C(C)(C)C)CC2)c2cc(F)c(C(=O)NS(=O)(=O)N3CCC3)cc12 (stereo not shown) [Example 27, N-(azetidin-1-ylsulfonyl)-1-(4-(tert-butyl)cyclohexyl)-6-fluoro-3-methyl-1H-indazole-5-carboxamide]
IC50 (hNav1.7): 0.023 µM
IC50 (NaV1.7): 0.14 µM

Cc1nn(C2CCC(C(C)(C)C)CC2)c2cc(F)c(C(=O)NS(C)(=O)=O)cc12 (stereo not shown) [Example 28, 1-(4-(tert-butyl)cyclohexyl)-6-fluoro-3-methyl-N-(methylsulfonyl)-1H-indazole-5-carboxamide]
IC50 (hNav1.7): 0.047 µM
IC50 (NaV1.7): 0.32 µM

Cc1nn(C2CCC(C)CC2)c2cc(F)c(C(=O)NS(=O)(=O)N3CCC3)cc12 (stereo not shown) [Example 29, N-(azetidin-1-ylsulfonyl)-6-fluoro-3-methyl-1-(4-methylcyclohexyl)-1H-indazole-5-carboxamide]
IC50 (hNav1.7): 0.35 µM
IC50 (NaV1.7): 1 µM

Cc1nn(C2CCC(C(C)C)CC2)c2cc(F)c(C(=O)NS(=O)(=O)N3CCC3)cc12 (stereo not shown) [Example 30, N-(azetidin-1-ylsulfonyl)-6-fluoro-1-(4-isopropylcyclohexyl)-3-methyl-1H-indazole-5-carboxamide]
IC50 (hNav1.7): 0.025 µM
IC50 (NaV1.7): 0.039 µM

Cc1nn(C2CCC(C)CC2)c2cc(F)c(C(=O)NS(C)(=O)=O)cc12 (stereo not shown) [Example 31, 6-fluoro-3-methyl-1-(4-methylcyclohexyl)-N-(methylsulfonyl)-1H-indazole-5-carboxamide]
IC50 (hNav1.7): 0.34 µM
IC50 (NaV1.7): 2 µM

Cc1nn(C2CCOCC2)c2cc(F)c(C(=O)NS(=O)(=O)N3CCC3)cc12 [Example 32, N-(azetidin-1-ylsulfonyl)-6-fluoro-3-methyl-1-(tetrahydro-2H-pyran-4-yl)-1H-indazole-5-carboxamide]
IC50 (NaV1.5; human, pH 7.4): ≥ 30 µM

Cc1nn(C2CCOCC2)c2cc(F)c(C(=O)NS(C)(=O)=O)cc12 [Example 34, 6-fluoro-3-methyl-N-(methylsulfonyl)-1-(tetrahydro-2H-pyran-4-yl)-1H-indazole-5-carboxamide]
IC50 (NaV1.5; human, pH 7.4): ≥ 30 µM
